# Assay results published in ChEMBL document CHEMBL3853263, “Effect of intercalator and Lewis acid-base branched peptide complex formation: boosting affinity towards HIV-1 RRE RNA” (Medchemcomm, 2016).
# Numbered stars: 1 amine (or outer) side, 2 acyl side, 3 side chain; on linkers, the order of the positions; unused ones are H or OH. Peptide text beside a SMILES is read from it. Suc = O=C(CCC(=O)[*:2])[*:1]
# How the values were obtained:
# [1] = Binding affinity to HIV1 wild type [32P]-labeled RRE-2B RNA after 30 mins by electrophoretic mobility shift assay; parameters: species or system Human immunodeficiency virus 1
# [2] = Binding affinity to HIV1 HXB3 RRE66 RNA; parameters: species or system Human immunodeficiency virus 1
Kd [2] [nM],Structure (SMILES),Kd [1] [nM]
,C[C@H](NC(=O)[C@H](C)NC(=O)[C@H](C)NC(=O)[C@H](CCCNC(=N)N)NC(=O)[C@H](CCC(N)=O)NC(=O)[C@H](CCCNC(=N)N)NC(=O)[C@H](CCC(=O)O)NC(=O)[C@H](CCCNC(=N)N)NC(=O)[C@H](Cc1c[nH]c2ccccc12)NC(=O)[C@H](CCCNC(=N)N)NC(=O)[C@H](CCCNC(=N)N)NC(=O)[C@H](CCCNC(=N)N)NC(=O)[C@H](CCCNC(=N)N)NC(=O)[C@H](CC(N)=O)NC(=O)[C@H](CCCNC(=N)N)NC(=O)[C@H](CCCNC(=N)N)NC(=O)[C@H](C)NC(=O)[C@H](CCC(N)=O)NC(=O)[C@H](CCCNC(=N)N)NC(=O)[C@@H](NC(=O)CCC(=O)O)[C@@H](C)O)C(=O)N[C@@H](C)C(=O)N[C@@H](CCCNC(=N)N)C(=O)O (Suc-TRQARRNRRRRWRERQRAAAAR-OH),100
2.4,NCC1O[C@H](O[C@H]2[C@@H](O)[C@H](O[C@@H]3[C@@H](O)[C@H](N)C[C@H](N)[C@H]3O[C@H]3O[C@H](CN)[C@@H](O)[C@H](O)[C@H]3N)O[C@@H]2CNc2c3ccccc3nc3ccccc23)[C@H](N)[C@@H](O)[C@@H]1O (some centres not stated),
